biological target: Cyclin-dependent kinase 2 (Homo sapiens, UniProt P24941); assay: OctetRed_Method1
From the text: OctetRed_Method1

| Kd | SMILES |
| --- | --- |
| > 100 µM | O=C(O)c1cccc(CSc2nnc(-c3ccncc3)o2)c1 [3-({[5-(pyridin-4-yl)-1,3,4-oxadiazol-2-yl]sulfanyl}methyl)benzoic acid] |
| > 100 µM | COc1cccc(NC(=O)CSc2nnnn2C)c1 [CS27] |
| > 100 µM | COc1ccc(CC(NC(C)=O)c2ccc3cccnc3c2O)cc1OC (centres undefined) [CS32] |
| > 100 µM | COc1ccc(NC(=O)CCSc2nnc3scc(-c4ccc(C)cc4)n23)cc1 [CS37] |
| > 100 µM | COc1ccc(NC(=O)CSc2nnc(-c3ccncc3)[nH]2)cc1 [CS41] |
| > 100 µM | COc1cc(OC)c(NC(=O)CSc2nnc(-c3ccccc3)n2C)cc1Cl [CS47] |
| > 100 µM | O=C(CSc1nnc(-c2ccc([N+](=O)[O-])cc2)n1-c1ccccc1)N1CCOCC1 [CS58] |
| > 100 µM | CCn1c(SCC(=O)Nc2cccc(C(C)=O)c2)nnc1-c1ccncc1 [CS66] |
| > 100 µM | COc1ccc(C(=O)CSc2nnc(-c3ccc(OC)c(OC)c3)n2-c2ccccc2)cc1 [CS67] |
| > 100 µM | Cc1c(NC(=O)C2CCCN2S(=O)(=O)c2ccccc2)c(=O)n(-c2ccccc2)n1C (centres undefined) [CS68] |
| > 100 µM | NC(=O)c1ccc(NCCCN2CCOCC2)c([N+](=O)[O-])c1 [CS69] |
| > 100 µM | CC(=O)Nc1ccc(S(=O)(=O)Nc2c(C)nn(-c3ccccc3)c2C)cc1 [CS70] |
| > 100 µM | COC(=O)c1ccccc1NC(=O)CSc1nnc(-c2ccc(OC)cc2)n1C [CS72] |
| > 100 µM | CS(=O)(=O)c1ccc(NC(=O)CSc2nnc(-c3ccccc3F)n2-c2ccccc2)cc1 [CS74] |
| > 100 µM | CN1CCN(C(=O)c2ccccc2N(Cc2ccccc2)S(C)(=O)=O)CC1 [CS76] |
| > 100 µM | COC(=O)c1ccc(NC(=O)CSc2nnnn2-c2ccccc2OC)cc1 [CS77] |
| > 100 µM | COc1ccc(-c2nnc(SCC(=O)Nc3c(F)cc(F)cc3Br)n2C)cc1 [CS78] |
| > 100 µM | COc1cccc(-n2nnnc2SCC(=O)Nc2c(C)cc(C)cc2C)c1 [CS81] |
| > 100 µM | COc1ccccc1NC(=O)CSc1nnc(-c2ccc([N+](=O)[O-])cc2)n1-c1ccccc1 [CS82] |
| > 100 µM | COc1ccc(NC(=O)c2ccco2)cc1NC(=O)c1cccnc1 [CS85] |
| > 100 µM | COC(=O)c1ccccc1Oc1nc(NC(C)C)nc(NC(C)C)n1 [CS92] |
| > 100 µM | Cc1ccc(S(=O)(=O)Nc2ccccc2CNc2cnc3ccccc3c2)cc1 [CS100] |
| > 100 µM | Cc1cc(C)c(S(=O)(=O)NCc2ccccn2)cc1C [CS105] |

| Kd | SMILES |
| --- | --- |
| > 100 µM | CC(=O)c1cccc(NC(=O)CSc2nnc(-c3cc4ccccc4cc3O)n2C)c1 [CS110] |
| > 100 µM | CCn1c(SCC(=O)Nc2ccccc2OC)nnc1-c1ccco1 [CS119] |
| > 100 µM | CN(CC(=O)Nc1ccccc1C(=O)N1CCCC1)CS(=O)(=O)c1ccc(Br)cc1 [CS130] |
| > 100 µM | O=C1c2ccccc2C(=O)N1CCCc1nc(-c2cccc([N+](=O)[O-])c2)no1 [CS148] |
| > 100 µM | Cc1c(NS(=O)(=O)c2cccc3nonc23)c(=O)n(-c2ccccc2)n1C [CS150] |
| > 100 µM | O=C(Cn1ccc([N+](=O)[O-])n1)N1CCCc2ccccc21 [CS154] |
| > 100 µM | CS(=O)(=O)N(CC(=O)Nc1ccccc1C(=O)N1CCOCC1)c1ccc(Cl)cc1 [CS160] |
| > 100 µM | CCc1ccccc1NC(=O)CSc1nnc(-c2cccc(OC)c2)n1C [CS169] |
| > 100 µM | CN1CCN(C(=O)CN(C)S(=O)(=O)c2ccc3ccccc3c2)CC1 [CS173] |
| > 100 µM | COc1ccc([N+](=O)[O-])cc1NC(=O)C(C)Oc1ccccc1C (centres undefined) [CS177] |
| > 100 µM | COc1ccccc1CNC(=O)CSc1nnnn1-c1c(C)cccc1C [CS184] |
| > 100 µM | CCOC(=O)c1cnc(Nc2nc3ccccc3o2)nc1CN1CCN(c2ccccc2)CC1 [CS196] |
| > 100 µM | COc1ccccc1-n1nnnc1SCC(=O)Nc1ccccc1SC [CS197] |
| > 100 µM | COc1cc(NC(=O)CSc2nncn2C)cc(OC)c1OC [CS202] |
| > 100 µM | O=C(Cc1ccccc1[N+](=O)[O-])Nc1ccccc1C(=O)N1CCOCC1 [CS209] |
| > 100 µM | CCn1c(SCC(=O)Nc2ccccc2OC)nnc1-c1c[nH]c2ccccc12 [CS213] |
| > 100 µM | COc1ccccc1NC(=O)CSc1nnc(-c2ccccc2Cl)n1-c1ccccc1 [CS222] |
| > 100 µM | Cn1nc([N+](=O)[O-])nc1Oc1ccccc1C(=O)N1CCOCC1 [CS231] |
| > 100 µM | Cc1cccc(NS(=O)(=O)c2cc(C(=O)Nc3ccccc3C(=O)N3CCOCC3)ccc2Cl)c1 [CS232] |
| > 100 µM | O=C(CSc1nnc(-c2ccncc2)o1)Nc1ccc(F)cc1 [CS234] |
| > 100 µM | COc1ccc2[nH]cc(CCNC(=O)Nc3ccc(Cl)c(Cl)c3)c2c1 [CS236] |
| > 100 µM | Cc1ccc(NS(=O)(=O)c2cc(C(=O)Nc3ccccc3C(=O)N3CCOCC3)ccc2Cl)c(C)c1 [CS238] |

The next lines start with the compound.

| SMILES | Kd |
| --- | --- |
| COc1ccc2c(C)nc(Nc3nc(C)cc(O)n3)nc2c1 | > 100 µM |
| CCc1nnc(NS(=O)(=O)c2ccc(NC(=O)c3ccc(F)cc3)cc2)s1 [CS31] | > 100 µM |
| O=S(=O)(NCCSc1ccccn1)c1ccc(Br)cc1 [CS33] | > 100 µM |
| CC1CCN(S(=O)(=O)c2ccc(Cl)c(C(=O)Nc3ccc(C(=O)O)cc3)c2)CC1 [CS34] | > 100 µM |
| COc1ccc(OCC(=O)Nc2cc(-c3nn4c(C)nnc4s3)ccc2C)cc1 [CS36] | > 100 µM |
| COC(=O)c1ccccc1NC(=O)CSc1nnc(C23C[C@H]4C[C@@H](C2)C[C@@H](C3)C4)n1C [CS38] | > 100 µM |
| O=C(COc1ccccc1[N+](=O)[O-])Nc1ccccc1N1CCOCC1 [CS46] | > 100 µM |
| CCOc1ccc2nc(SCC(=O)Nc3c(C)n(C)n(-c4ccccc4)c3=O)sc2c1 [CS49] | > 100 µM |
| COc1ccc(NC(=O)CSc2nnnn2C)cc1 [CS53] | > 100 µM |
| CCOc1ccc(C(C)=O)cc1Cc1c(O)nc(N)nc1O [CS55] | > 100 µM |
| COC(=O)c1ccc(NC(=O)CSc2nnc(-c3ccc(NC(C)=O)cc3)n2C)cc1 [CS59] | > 100 µM |
| Cn1c(COc2cccc3cccnc23)nnc1SCC(N)=O [CS64] | > 100 µM |
| CN1CCN(C(=O)CN(c2cc(C(F)(F)F)ccc2Cl)S(=O)(=O)c2ccccc2)CC1 [CS65] | > 100 µM |
| CC(=O)Nc1cccc(-c2nnc(SCC(=O)Nc3ccc(C(C)=O)cc3)n2C)c1 [CS71] | > 100 µM |
| COc1ccc(-n2c(SCC(N)=O)nnc2-c2cccs2)cc1 [CS73] | > 100 µM |
| O=C(Cn1c(NCCO)nc2ccccc21)c1cccc([N+](=O)[O-])c1 [CS80] | > 100 µM |
| O=C(Nc1ccc(S(=O)(=O)Nc2ncccn2)cc1)c1c(Cl)cccc1Cl [CS93] | > 100 µM |
| CCn1c(SCC(=O)Nc2cccc(OC)c2)nnc1-c1ccncc1 [CS95] | > 100 µM |
| COc1cc(OC)c(NC(=O)CSc2nnc(-c3ccncc3)n2C)cc1Cl [CS96] | > 100 µM |
| COc1ccccc1NC(=O)CSc1nnc(-c2ccc(F)cc2)n1C [CS98] | > 100 µM |

| SMILES | Kd |
| --- | --- |
| O=C(Cn1nc(-c2cccc([N+](=O)[O-])c2)c2ccccc2c1=O)NCC1CCCO1 (centres undefined) [CS102] | > 100 µM |
| O=S(=O)(NCc1ccccn1)c1cc(Cl)c(Cl)cc1Cl [CS104] | > 100 µM |
| COc1cc(OC)c(NC(=O)CSc2nnc(-c3ccncc3)n2-c2ccccc2)cc1Cl [CS109] | > 100 µM |
| COc1ccc(C(=O)C(C)Oc2cccc(NC(=O)c3cccc([N+](=O)O)c3)c2)cc1 (centres undefined) [CS112] | > 100 µM |
| O=S(=O)(NCc1ccccn1)c1ccc(Cl)c(Cl)c1Cl [CS116] | > 100 µM |
| CC(Sc1nc2ccccc2[nH]1)C(=O)Nc1ccc(S(N)(=O)=O)cc1 (centres undefined) [CS140] | > 100 µM |
| COc1cc([N+](=O)[O-])ccc1NC(=O)CN1CCOCC1 [CS142] | > 100 µM |
| Cc1cc(C)c(S(=O)(=O)N(C)CC(=O)N2CCC(C(N)=O)CC2)c(C)c1 [CS152] | > 100 µM |
| Cc1ccnc(NS(=O)(=O)c2ccc(NC(=O)c3cncc(Br)c3)cc2)n1 [CS165] | > 100 µM |
| O=C(CSc1nnc(-c2ccccc2O)n1-c1ccccc1)Nc1cccc(C(=O)O)c1 [CS166] | > 100 µM |
| COc1cc(-c2nnc(SCC(N)=O)n2C)cc(OC)c1OC [CS175] | > 100 µM |
| Cn1c(Cc2ccccc2)nnc1Sc1ccc([N+](=O)[O-])cc1C(=O)N1CCOCC1 [CS188] | > 100 µM |
| COc1ccc(NC(=O)CN2CCOCC2)c([N+](=O)[O-])c1 [CS189] | > 100 µM |
| COc1ccccc1NC(=O)CSc1nncn1C [CS198] | > 100 µM |
| O=C(Cn1cnc([N+](=O)[O-])n1)Nc1ccc(N2CCOCC2)c(Cl)c1 [CS200] | > 100 µM |
| Cc1nonc1OCCNc1cc(N2CCOCC2)ccc1[N+](=O)[O-] [CS204] | > 100 µM |
| O=C(CC1OCCN(Cc2ccccc2)C1=O)Nc1ccc2c(c1)OCCO2 (centres undefined) [CS208] | > 100 µM |
| CSc1ccc(S(=O)(=O)NCc2ccccn2)cc1 [CS230] | > 100 µM |
| Cc1nc2ncnn2c(O)c1NS(=O)(=O)c1ccc(Br)cc1 [CS237] | > 100 µM |

From BindingDB's records for doi:10.7270/Q25B01BH (D3R/Abbott, 2015)
